Source: article PMC8641662 (Frontiers in Plant Science, 2021)

Columns and labels:
red clover HDT1 = red clover HDT1 (Trifolium pratense, UniProt A0A384ZRD3); assay: Determination of kinetic parameters of HDT (initial rates by release of free CoA, DTNB, purified histidine-tagged HDT1); details: for kcat / Km: variable acceptor substrate; for Km: pH 8.0, 25°C
Protocol: Kinetic parameters for HDT were determined by measuring initial reaction rates by release of free CoA in real time using DTNB [5,5′-dithio-bis-(2-nitrobenzoic acid)] and spectroscopy as detailed elsewhere ([Sullivan and Bonawitz, 2018]). Measurements were made in a temperature-controlled spectrophotometer at 25°C. Reactions were carried out in 100mM sodium phosphate, 1mM EDTA, pH 8.0. Acceptor substrates were prepared in 1N HCl as 66.7×stock solutions, so an equal amount of 1N NaOH was added to reactions to neutralize the HCl (15mM final). Substrate and enzyme amounts used are detailed in Table 2.
All kinetic data analyses were carried out using GraphPad Prism version 7 or higher for Mac OS (GraphPad Software, La Jolla, CA, United States). Each analysis (i.e., series of substrate concentrations) was carried out in duplicate on different days with freshly prepared substrate and enzyme dilutions. Data were analyzed by non-linear regression of the replicated data. […] Kinetic parameters are reported±standard error (SE) as determined from the non-linear regression.
More limited analyses (explained below) were carried out with L-Phe and L-Leu acceptor substrates.

red clover HDT (HDT1) = assay: In vitro hydroxycinnamoyl-CoA transferase activity assay with crude E. coli extracts containing recombinant HDT, products by HPLC with PDA and MS; assay type: biochemical, red clover (Trifolium pratense L.); details: p-coumaroyl-, caffeoyl- or feruloyl-CoA donor; HPLC with PDA and MS detection
Protocol: General in vitro reactions for hydroxycinnamoyl-CoA transferase activity contained 100mM sodium phosphate buffer (pH 7.5), 25 to 50mM ascorbate, 1 to 2mM p-coumaroyl-, caffeoyl-, or feruloyl-CoA donor substrate, 1 to 6mM acceptor substrate (L-amino acids, shikimic acid, or malic acid), and red clover leaf or E. coli extract. When red clover extract was the enzyme source, reaction head space was exchanged for nitrogen to prevent oxidation of caffeoyl and L-DOPA moieties by endogenous PPO. Reactions were incubated at 30°C for up to 1h prior to being stopped by the addition of one-fifth volume of 10% formic acid. Precipitated protein was removed by centrifugation (17,000×g for 5min at room temperature) and the supernatant analyzed for reaction products by HPLC as described above.
Crude E. coli extracts containing the recombinant proteins were incubated with hydroxycinnamoyl-CoAs and acceptors, and the reactions were analyzed by HPLC with PDA and MS detection. […] In the case of caffeoyl-L-Tyr and caffeoyl-L-DOPA, where authentic compound was available for purchase, the in vitro-formed products were indistinguishable from the purchased standards in terms of retention time, UV absorption spectrum, and (m/z). For caffeoyl-L-Tyr, we also produced sufficient compound via an HDT1-mediated reaction to carry out ^1H and ^13C NMR to further confirm product identity (Supplementary Figure S2). Chemical shifts were consistent with those previously published for this compound ([Stark and Hofmann, 2005]). […] We only tested L-amino acids with HDT1, since this is what is present in clovamide and what is most abundantly present in nature. […] In this case, ability of the D-amino acid substrates to serve as acceptor substrates could be due to their structural (including stereochemistry) similarity to the D-phenyllactic acid acceptor also used by this enzyme.

[1] = substrate: N[C@@H](Cc1ccc(O)c(O)c1)C(=O)O; assay: purified protein, by the assay type; details: other: variable acceptor substrate, pH 8.0, 25°C
[2] = substrate: N[C@@H](Cc1ccc(O)cc1)C(=O)O; assay: purified protein, by the assay type; details: other: variable acceptor substrate, pH 8.0, 25°C
[3] = constant substrate FA-CoA (20μM)
[4] = constant substrate p-CA-CoA (20μM)
[5] = constant substrate CA-CoA (50μM)

## N[C@@H](Cc1ccc(O)c(O)c1)C(=O)O [L-DOPA, L-3,4-dihydroxyphenlylalanine]
Red clover HDT1; [3]
  kcat: 0.75 ± 0.015 s⁻¹
Red clover HDT1; [4]
  kcat: 2.00 ± 0.022 s⁻¹
Red clover HDT (HDT1)
  Use as acceptor substrate (product formation with hydroxycinnamoyl-CoA donors): capable of transferring

## CC(C)C[C@H](N)C(=O)O [L-Leu, L-leucine]
Red clover HDT1; [5]
  Km: > 10 mM
Red clover HDT (HDT1)
  Use as acceptor substrate (product formation with hydroxycinnamoyl-CoA donors): can also serve as acceptors

## N[C@@H](Cc1ccccc1)C(=O)O [L-Phe, L-phenylalanine]
Red clover HDT1; [5]
  Km: > 10 mM
Red clover HDT (HDT1)
  Use as acceptor substrate (product formation with hydroxycinnamoyl-CoA donors): capable of transferring

## N[C@@H](Cc1c[nH]c2ccccc12)C(=O)O [L-Trp, L-tryptophan]
Red clover HDT1; [5]
  kcat: 1.21 ± 0.007 s⁻¹
  Km: 1.25 ± 0.0267 mM
Red clover HDT1; [3]
  kcat: 0.35 ± 0.007 s⁻¹
  Km: 0.273 ± 0.0241 mM
Red clover HDT1; [4]
  kcat: 1.00 ± 0.009 s⁻¹
  Km: 2.16 ± 0.0634 mM
Red clover HDT (HDT1)
  Use as acceptor substrate (product formation with hydroxycinnamoyl-CoA donors): can also serve as acceptors

## N[C@@H](Cc1ccc(O)cc1)C(=O)O [L-Tyr, L-tyrosine]
Red clover HDT1; acceptor substrate comparison
  catalytic efficiency, fold higher compared to L-DOPA as acceptor: about 10 fold
Red clover HDT (HDT1)
  Use as acceptor substrate (product formation with hydroxycinnamoyl-CoA donors): capable of transferring

## N=C(N)NCCC[C@H](N)C(=O)O [arginine]
Red clover HDT (HDT1)
  Use as acceptor substrate (product formation with hydroxycinnamoyl-CoA donors): no product was detected

## O=C(O)CC(O)C(=O)O (stereo not shown) [malic acid]
Red clover HDT (HDT1)
  Use as acceptor substrate (product formation with hydroxycinnamoyl-CoA donors): No reaction products were seen

## NCCc1ccc(O)cc1 [tyramine]
Red clover HDT (HDT1)
  Use as acceptor substrate (product formation with hydroxycinnamoyl-CoA donors): no reaction products were seen

B1: red clover HDT1 (Trifolium pratense) (protein)
chain: MVTIIASHTVIPEEPTPQGPFWLSDMDQVVRIRDVPTLYIYKTPKKNQENKNIVETFKNSLSKILVHYYPIAGRLCYIEGGRLELNLNAKGAILVEAETEKTMNDYGDFSHFDTIKELVPMIDYNQPIEEIPNFVVQLTNFKNNEGFAIGVAFLHPLSDGLGAIKFINSWAKIARGETLEANELPFLDRKLLKFSHTPLEPRFEHLELKPLPLILGRKDASEEKEKKTSATLLKLSSEQVDKLKKKANEEDVLGIQKKEYSRPYSKFEVISAHIWRCASKARELEDNQESVIRFIADVKNRMIPPLPKNYFGNALTQTATKGYIGEITSKPLGYVAQKIREATELINDEYIRSQIDVVRSFEHLDDARKMFIGEKARYFGNPNFNLTSWLSMPVYEADFGWGKPNYFGLADVSPHDRAVILLSPDDDGSVLVSFHFQIAHMELFNKYFYEEI
[1]; [5]
  Km: 2465.0 ± 65.88 µM
[1]; [3]
  Km: 150.0 ± 7.65 µM
[1]; [4]
  Km: 989.8 ± 35.92 µM
[2]; [5]
  Km: 342.0 ± 14.37 µM
  kcat: 9.12 ± 0.114 s⁻¹
  kcat/Km: 26700 ± 1170 M⁻¹ s⁻¹
[2]; [3]
  Km: 14.4 ± 0.64 µM
  kcat: 0.69 ± 0.006 s⁻¹
  kcat/Km: 47900 ± 2160 M⁻¹ s⁻¹
[2]; [4]
  Km: 145.3 ± 5.56 µM
  kcat: 2.74 ± 0.027 s⁻¹
  kcat/Km: 18900 ± 750 M⁻¹ s⁻¹
